Measurements from patent US20240285635A1, “USE OF PYRROLOPYRIMIDINE COMPOUND AND PHARMACEUTICAL COMPOSITION THEREOF FOR TREATING CHRONIC GRAFT VERSUS HOST DISEASE” (CHIA TAI TIANQING PHARMACEUTICAL GROUP CO., LTD., priority 2021, published 2024).
Values joined by “and” are separate entries in the source; they are usually repeats but may differ in a detail not shown here. Equal entries are not always repeated. “Also recorded” adds a separate entry of the source.

System: glucocorticoid-refractory/dependent moderate and severe cGVHD subjects
Assay: Clinical study of tablets of the compound of formula I in glucocorticoid-refractory/dependent moderate and severe cGVHD subjects
Assay type: in vivo, human
Set-up: key to C1 organ score and efficacy: efficacy / C3 organ score and efficacy: efficacy / C6 organ score and efficacy: efficacy / C9 organ score and efficacy: efficacy / C12 organ score and efficacy: efficacy: Complete response (CR): all reversible clinical symptoms of cGVHD were completely alleviated; Partial response (PR): there was improvement in at least one organ or site, but no improvement in all other organs or sites; Stable disease (SD): cGVHD clinical performance was not worsened compared to baseline; Disease progression (PD): any one organ or site was worsened
Description: As used herein, 2014 NIH cGVHD meeting consensus criteria was used for clinical diagnosis, disease grading, and evaluation of disease status or effectiveness.
As used herein, the severity of adverse events was determined using the NCI-CTC AE 5.0 criteria.
The subjects of the study were glucocorticoid-refractory/dependent moderate and severe cGVHD subjects. The safety and the tolerability of the tablets of the compound of formula I in the glucocorticoid-refractory/dependent moderate and severe cGVHD subjects were evaluated, and the efficacy and the safety of the tablets of the compound of formula I in the glucocorticoid-refractory/dependent moderate and severe cGVHD subjects were further evaluated.
Method of administration: orally administered twice daily at fasting, with 28 consecutive days of administration as one treatment cycle.
Drug: the tablets of the compound of formula I with 5 mg or 20 mg of the active ingredient, the compound of formula I being its stereoisomer, a compound of formula II
During the study, the investigator would evaluate the cGVHD activity through NIH consensus on cGVHD to define the response effect and make a record accordingly.
Complete response (CR): all reversible clinical symptoms of cGVHD were completely alleviated. Irreversible clinical manifestations would be defined by NIH consensus criteria.
Partial response (PR): there was improvement in at least one organ or site, but no improvement in all other organs or sites.
Stable disease (SD): cGVHD clinical performance was not worsened compared to baseline.
Disease progression (PD): any one organ or site was worsened. In addition, the emergence of new clinical manifestations of cGVHD was also counted as progression.
Objective response rate (ORR): refers to the percentage of subjects in complete response (CR) or partial response (PR) as determined by the investigator according to NIH cGVHD response assessment.
Best objective response rate (ORR): refers to the percentage of subjects whose best response was complete response (CR) or partial response (PR) as determined by the investigator according to NIH cGVHD response assessment.

[1] = 10 mg bid oral, cycle C1, individual subjects
[2] = 10 mg bid oral, cycle C1, individual subjects 1-4
[3] = 10 mg bid oral, cycle C3, individual subjects
[4] = 10 mg bid oral, cycle C3, individual subjects 1-4
[5] = 10 mg bid oral, cycle C6, individual subjects
[6] = 10 mg bid oral, cycle C6, individual subjects 1-4
[7] = 10 mg bid oral, cycle C9, individual subjects
[8] = 10 mg bid oral, cycle C9, individual subjects 1-4
[9] = 10 mg bid oral, cycle C12, individual subjects
[10] = 10 mg bid oral, cycle C12, individual subjects 1-2
[11] = 15 mg bid oral, cycle C1, individual subjects
[12] = 15 mg bid oral, cycle C1, individual subjects 5-8
[13] = 15 mg bid oral, cycle C3, individual subjects
[14] = 15 mg bid oral, cycle C3, individual subjects 5-8
[15] = 15 mg bid oral, cycle C6, individual subjects
[16] = 15 mg bid oral, cycle C6, individual subjects 5-8
[17] = 15 mg bid oral, cycle C9, subject 5
[18] = of the patients evaluated in Table 2, 10 or 15 mg bid

SMILES: N#CC[C@H](C1CCCC1)n1cc(-c2ncnc3[nH]ccc23)c(N)n1 [compound of formula I]
- C1 organ score: esophagus [1]: 1 point for points
- C1 organ score: eye [1]: skin, 1 point points (2×) and 1 point for eye, points (2×)
- C1 organ score: joint [1]: 1 point for points and 1 points
- C1 organ score: lung [1]: 3 points for (2×) and 0 points for
- C1 organ score: lung, percentage in parentheses [1]: lung (34.4%), and lung (81.8%), and 25%
- C1 organ score: oral cavity [1]: 1 point for points
- C1 organ score: skin [1]: 1 point for points and 3 points for
- C1 organ score: upper digestive tract [1]: 1 point for points
- C1 organ score and efficacy: comprehensive score [2]: score 6;; also recorded: score 1;; also recorded: score 2;
- C1 organ score and efficacy: efficacy [2]: efficacy: PR
- C3 organ score: esophagus [3]: 1 point for points
- C3 organ score: eye [3]: 1 point for eye, points
- C3 organ score: joint [3]: 1 point for points and 1 points
- C3 organ score: joint fascia [3]: 2 points for
- C3 organ score: lung [3]: 0 points for
- C3 organ score: lung, percentage in parentheses [3]: lung (31%), and lung (81.0%), and 28.1%
- C3 organ score: skin [3]: 1 point for points
- C3 organ score: upper digestive tract [3]: 0 points for
- C3 organ score and efficacy: comprehensive score [4]: score 5;; also recorded: score 1;
- C3 organ score and efficacy: efficacy [4]: efficacy: PR
- C6 organ score: esophagus [5]: 1 point for points
- C6 organ score: eye [5]: 1 point for eye, points
- C6 organ score: joint [5]: 1 point for points and 1 points
- C6 organ score: joint fascia [5]: 2 points for
- C6 organ score: lung [5]: 3 points for (2×) and 0 points for
- C6 organ score: lung, percentage in parentheses [5]: lung (33%), and lung (80%), and 25.0%
- C6 organ score: skin [5]: 1 point for points and 2 points for
- C6 organ score: upper digestive tract [5]: 0 points for
- C6 organ score and efficacy: comprehensive score [6]: score 5;; also recorded: score 1;
- C6 organ score and efficacy: efficacy [6]: efficacy: PR
- C9 organ score: esophagus [7]: 1 point for points and 0 points for
- C9 organ score: eye [7]: skin, 0 points (2×) and 1 point for eye, points (2×)
- C9 organ score: joint [7]: 1 point for points and 1 points
- C9 organ score: lung [7]: 3 points for (2×) and 0 points for
- C9 organ score: lung, percentage in parentheses [7]: lung (35.1%), and 26.6%
- C9 organ score: skin [7]: 0 points for
- C9 organ score: upper digestive tract [7]: 0 points for
- C9 organ score and efficacy: comprehensive score [8]: score 5;; also recorded: score 0;; also recorded: score 1;
- C9 organ score and efficacy: efficacy [8]: efficacy: PR; also recorded: efficacy: CR
- C12 organ score: esophagus [9]: 1 point for points
- C12 organ score: eye [9]: skin, 0 points
- C12 organ score: joint fascia [9]: 2 points for
- C12 organ score: lung [9]: 3 points for
- C12 organ score: lung, percentage in parentheses [9]: lung (35.1%),
- C12 organ score: skin [9]: 0 points for
- C12 organ score: upper digestive tract [9]: 0 points for
- C12 organ score and efficacy: comprehensive score [10]: score 5;; also recorded: score 0;
- C12 organ score and efficacy: efficacy [10]: efficacy: PR; also recorded: efficacy: CR
- C1 organ score: esophagus [11]: 0 points for
- C1 organ score: eye [11]: skin, 1 point points; also recorded: skin, 2 points
- C1 organ score: joint fascia [11]: 1 points and 1 point for points
- C1 organ score: lower digestive tract [11]: 1 point for points
- C1 organ score: lung [11]: tract, 3 points and 3 points for
- C1 organ score: lung, percentage in parentheses [11]: 20.5% and lung (28.7%), and lung (55%),
- C1 organ score: skin [11]: 1 point for points and 3 points for
- C1 organ score and efficacy: comprehensive score [12]: score 8;; also recorded: score 6;; also recorded: score 3;; also recorded: score 7;
- C1 organ score and efficacy: efficacy [12]: efficacy: PR; also recorded: efficacy: SD
- C3 organ score: esophagus [13]: 0 points for
- C3 organ score: joint fascia [13]: 1 points and 1 point for points and 2 points for
- C3 organ score: lower digestive tract [13]: 1 point for points
- C3 organ score: lung [13]: tract, 3 points
- C3 organ score: lung, percentage in parentheses [13]: 17% and lung (27.8%), and lung (55%),
- C3 organ score: skin [13]: 1 point for points
- C3 organ score and efficacy: comprehensive score [14]: score 8;; also recorded: score 5;; also recorded: score 2;; also recorded: score 7;
- C3 organ score and efficacy: efficacy [14]: efficacy: PR; also recorded: efficacy: SD
- C6 organ score: esophagus [15]: 0 points for and 1 point for points
- C6 organ score: joint fascia [15]: 1 points and 0 points for and 2 points for
- C6 organ score: lower digestive tract [15]: 1 point for points
- C6 organ score: lung [15]: tract, 3 points and 3 points for and 2 points for
- C6 organ score: lung, percentage in parentheses [15]: 15.9% and lung (28.4%), and lung (52.7%),
- C6 organ score: skin [15]: 2 points for (2×) and 1 point for points (2×)
- C6 organ score and efficacy: comprehensive score [16]: score 8;; also recorded: score 4;; also recorded: score 2;; also recorded: score 6;
- C6 organ score and efficacy: efficacy [16]: efficacy: PR
- C9 organ score and efficacy: comprehensive score [17]: score 6;
- C9 organ score and efficacy: efficacy [17]: efficacy: PR
- C9 organ score: eye [17]: skin, 2 points
- C9 organ score: joint fascia [17]: 0 points
- C9 organ score: lower digestive tract [17]: 0 points for
- C9 organ score: lung [17]: tract, 3 points
- C9 organ score: lung, percentage in parentheses [17]: 17.6%
- C9 organ score: skin [17]: 0 points for
- patients in complete response (CR) [18]: 1 patient
- patients in partial response (PR) [18]: 7 patients
- clinical benefit in the treatment of chronic graft-versus-host disease (patients evaluated in Table 2): clinical benefits
- tolerability and safety (tablets, cGVHD subjects): good tolerability and safety
